According to PMC6770006, “Novel Heat Shock Protein 90 Inhibitors Suppress P-Glycoprotein Activity and Overcome Multidrug Resistance in Cancer Cells” (International Journal of Molecular Sciences, 2019):

Assays:
P-gp = P-gp (Homo sapiens, UniProt P08183); test: Rhodamine 123 accumulation assay (P-gp activity, flow cytometry); format: cell-based; set-up: P-gp overexpressing multidrug resistant DLD1-TxR cells were selected by continuous exposure to stepwise increasing concentrations of paclitaxel from DLD1 cells; endogenous in cells; host or cells: NCI-H460/R and DLD1-TxR (drug-selected MDR human cancer cells); settings: NCI-H460/R and DLD1-TxR, 30 min, Figure 3b
Chain of P-gp (P08183 whole entry): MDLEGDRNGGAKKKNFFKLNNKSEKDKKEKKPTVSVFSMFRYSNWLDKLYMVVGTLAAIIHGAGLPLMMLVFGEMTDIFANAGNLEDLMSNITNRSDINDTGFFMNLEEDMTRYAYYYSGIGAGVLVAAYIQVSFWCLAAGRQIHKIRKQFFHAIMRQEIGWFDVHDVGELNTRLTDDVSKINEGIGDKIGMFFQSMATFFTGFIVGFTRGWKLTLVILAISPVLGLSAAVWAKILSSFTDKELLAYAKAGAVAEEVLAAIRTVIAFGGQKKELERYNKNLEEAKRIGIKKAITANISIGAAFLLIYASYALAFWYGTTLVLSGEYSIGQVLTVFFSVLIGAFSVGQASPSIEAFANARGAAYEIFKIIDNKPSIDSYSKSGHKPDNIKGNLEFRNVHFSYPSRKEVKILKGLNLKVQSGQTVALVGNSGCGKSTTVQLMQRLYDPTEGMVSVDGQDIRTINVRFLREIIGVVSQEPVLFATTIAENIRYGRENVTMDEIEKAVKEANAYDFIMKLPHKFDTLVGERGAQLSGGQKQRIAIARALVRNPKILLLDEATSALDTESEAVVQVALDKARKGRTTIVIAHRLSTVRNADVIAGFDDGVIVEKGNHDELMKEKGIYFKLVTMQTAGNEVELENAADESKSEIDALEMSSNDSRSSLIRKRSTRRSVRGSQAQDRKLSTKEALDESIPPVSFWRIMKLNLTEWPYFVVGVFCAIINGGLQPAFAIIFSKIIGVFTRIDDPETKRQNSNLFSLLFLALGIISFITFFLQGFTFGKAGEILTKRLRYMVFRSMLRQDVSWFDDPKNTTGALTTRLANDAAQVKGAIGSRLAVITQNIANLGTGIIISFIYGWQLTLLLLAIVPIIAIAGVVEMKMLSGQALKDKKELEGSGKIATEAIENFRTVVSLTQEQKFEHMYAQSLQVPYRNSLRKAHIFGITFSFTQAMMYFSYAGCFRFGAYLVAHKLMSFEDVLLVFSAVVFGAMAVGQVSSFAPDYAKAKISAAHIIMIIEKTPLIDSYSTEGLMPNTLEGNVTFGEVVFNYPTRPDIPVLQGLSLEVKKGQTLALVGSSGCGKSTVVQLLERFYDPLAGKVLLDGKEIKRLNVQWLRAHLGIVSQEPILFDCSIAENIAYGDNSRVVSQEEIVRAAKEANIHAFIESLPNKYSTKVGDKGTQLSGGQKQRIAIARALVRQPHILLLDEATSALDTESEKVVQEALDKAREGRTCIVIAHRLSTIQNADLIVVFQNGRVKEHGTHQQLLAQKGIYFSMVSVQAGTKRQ

MRC-5 cells = test: MTT assay, normal embryonic lung fibroblasts MRC-5; format: cell-based, human; settings: for IC50: Homo sapiens, MRC5, MTT, 72 h, normal fibroblasts, read-out: Cell growth inhibition IC50, MRC-5; for Relative Selectivity: IC50 in MRC-5 cells / average IC50 of four cancer cell lines
Experimental: (§1) A series of 3-aryl-naphtho[2,3-d]isoxazole-4,9-diones were synthesized (Scheme 1, Figure 1) and their growth inhibition activity was tested in vitro on human non-small cell lung carcinoma NCI-H460, colorectal carcinoma DLD1 and their corresponding MDR cells (NCI-H460/R and DLD1-TxR, respectively), as well as normal embryonic lung fibroblasts MRC-5. The differences in cell growth inhibition between cancer and normal cells obtained by the MTT assay after 72 h treatment are presented in Table 1. The effect of compounds is presented as IC50 values that correspond to the 50% of cell growth inhibition.
(§2) Cell viability was assessed by the MTT assay (AppliChem GmbH, Darmstadt, Germany). Cells grown in 25 cm^2 tissue flasks were trypsinized and 1000 cells/well were seeded into flat-bottomed 96-well tissue culture plates and incubated overnight. Subsequently, the cells were treated with increasing concentrations of Hsp90 inhibitors for 72 h: compound 3 (0.1–2.5 µM), compound 4 (0.25–5 µM), compound 5 (0.5–25 µM), compound 6 (50–1000 nM), compound 7 (10–250 nM), compound 8 (0.25–5 µM), compound 9 (10–250 nM), compound 10 (0.5–25 µM), compound 13 (0.5–10 µM), compound 14 (1–25 µM), and compound 15 (10–250 nM). […] After treatment, MTT was added to each well in a final concentration of 0.2 mg/mL for 4 h. Formazan product was dissolved in 200 µl of DMSO, and the absorbance was measured at 540 nm using an automatic LKB 5060-006 Micro Plate Reader (Vienna, Austria). IC50 value was defined as a concentration of the drug that inhibited cell growth by 50% and was calculated by nonlinear regression analysis using GraphPad Prism 6.0 for Windows (La Jolla, CA, USA). Relative selectivity towards cancer cells was calculated as a relation between IC50 value obtained in MRC-5 cells and an average IC50 value from four tested cancer cell lines.

NCI-H460/R cells = test: MTT assay, cell growth inhibition, NCI-H460/R (MDR); format: cell-based, human; settings: for Efficacy in MDR NCI-H460/R cells compared with sensitive NCI-H460: 72 h; for IC50: Homo sapiens, NCI-H460, 72 h, MDR cells
Experimental: as §1
(§3) Human colorectal carcinoma (DLD1), non-small cell lung carcinoma (NCI-H460), and normal embryonic lung fibroblast (MRC-5) cell lines were purchased from the American Type Culture Collection, Rockville, MD. P-gp overexpressing multidrug resistant DLD1-TxR cells were selected by continuous exposure to stepwise increasing concentrations of paclitaxel from DLD1 cells, while NCI-H460/R cells were selected from NCI-H460 cells after DOX selective pressure. MDR cancer cell lines, DLD1-TxR and NCI-H460/R, and their sensitive counterparts were maintained in RPMI 1640 medium supplemented with 10% FBS, 2 mM L-glutamine, and 10,000 U/mL penicillin, 10 mg/mL streptomycin, 25 mg/mL amphotericin B solutions. MRC-5 cells were cultured in DMEM supplemented with 10% FBS, 4 g/L glucose, 2 mM L-glutamine and 5000 U/mL penicillin, 5 mg/mL streptomycin solution. All cell lines were sub-cultured at 72 h intervals using 0.25% trypsin/EDTA and seeded into a fresh medium at 8000 cells/cm^2. All cell lines were maintained at 37 °C in a humidified 5% CO2 atmosphere.
as §2

Hsp90 = tested on: Hsp90; set-up: method as in PMID 22538015; settings: read-out: Hsp90 Affinity binding; cited from earlier work
NCI-H460 cells = test: MTT assay, cell growth inhibition, NCI-H460; format: cell-based; settings: Homo sapiens, 72 h, three independent experiments
Experimental: as §1, §2

[1] = tested on: NCI-H460, NCI-H460/R, DLD1, DLD1-TxR cells; test: MTT assay, grouping of inhibitors by IC50 over the cancer cell lines; format: cell-based; settings: Homo sapiens, Figure 2b, read-out: IC50 values (grouping for Pearson correlation)
Experimental: When the IC50 values obtained by the MTT assay were compared to Hsp90 affinity binding IC50 values (Table 1), a positive Pearson correlation (r > 0.5) was found for all cancer cell lines (Figure 2b).
as §2

DLD1-TxR cells = test: MTT assay, cell growth inhibition, DLD1-TxR (MDR); format: cell-based, human; settings: 72 h; for IC50: Homo sapiens, MDR cells
Experimental: as §1, §3, §2

P-gp expression = test: Flow cytometric analysis of P-gp expression; format: cell-based, human; settings: 72 h; for Change in P-gp expression, DLD1 / Change in P-gp expression, NCI-H460: 5 µM 5, 200 nM 7, 100 nM 9, 10 nM TQ, 50 nM DOX, 50 nM PTX
Experimental: P-glycoprotein expression level in NCI-H460, NCI-H460/R, DLD1, and DLD1-TxR and cells was measured by flow cytometry. All cell lines were seeded in adherent 6-well plates and treated with Hsp90 inhibitors for 72 h at the following concentrations: 5 µM compound 5, 200 nM compound 7, 100 nM compound 9 (NCI-H460 and DLD1), and 10 µM compound 5, 500 nM compound 7, 500 nM compound 9 (NCI-H460/R and DLD1-TxR). Cells were also treated with 10 nM TQ, a non-competitive P-gp inhibitor, which served as a positive control. In addition, sensitive cells (NCI-H460 and DLD1) were treated with 50 nM DOX and 50 nM PTX that served as positive controls for the induction of P-gp expression. Then, cells were collected by trypsinization, washed with PBS, and directly immunostained by FITC-conjugated anti-P-gp antibody according to the manufacturer’s protocol. The samples were kept in the dark until the analysis on CyFlow Space Partec flow cytometer (Sysmex Partec GmbH, Görlitz, Germany). The fluorescence of FITC-conjugated anti-P-gp was detected on fluorescence channel 1 (FL1-H) at 530 nm. A minimum of 10,000 events were collected for each sample (the gate excluded cell debris and dead cells) and the obtained results were analyzed with Summit software v4.3 (Dako Colorado Inc., Fort Collins, CO, USA).

DLD1 cells = test: MTT assay, cell growth inhibition, DLD1; format: cell-based; settings: Homo sapiens, DLD-1, 72 h
Experimental: as §1, §2

SMILES	Concentration dependence of P-gp inhibition (Rho 123 accumulation) (P-gp)	IC50 (MRC-5 cells) [nM]	Relative Selectivity (MRC-5 cells)	Efficacy in MDR NCI-H460/R cells compared with sensitive NCI-H460 (NCI-H460/R cells)	IC50 (NCI-H460/R cells) [nM]	IC50 (Hsp90) [nM]	IC50 (NCI-H460 cells) [nM]	IC50 [1] [nM]	Efficacy in MDR DLD1-TxR cells compared with sensitive DLD1 (DLD1-TxR cells)	IC50 (DLD1-TxR cells) [nM]	Change in P-gp expression, DLD1 (P-gp expression)	Change in P-gp expression, NCI-H460 (P-gp expression)	Change in P-gp expression, NCI-H460/R (P-gp expression; 10 µM 5, 500 nM 7, 500 nM 9, 10 nM TQ)	IC50 (DLD1 cells) [nM]
O=C1c2ccccc2C(=O)c2c(-c3ccccc3O)noc21 [Compound 5]	concentration dependent effect	128000 ± 39000	10.64	further compromised in the presence of MDR phenotype	25500 ± 925	1550	5720 ± 73	≥ 1000	further compromised in the presence of MDR phenotype	11100 ± 304	did not change P-gp expression	did not change P-gp expression	significantly increased P-gp expression	5680 ± 163
O=C1c2ccccc2C(=O)c2c(-c3ccncc3)noc21 [Compound 7]	concentration dependent effect	599 ± 15	3.31	evaded resistance in both MDR cancer cell lines	231 ± 6	390	199 ± 5	< 1000	evaded resistance in both MDR cancer cell lines	138 ± 3	did not change P-gp expression	did not change P-gp expression	–	156 ± 4
O=C1c2ccccc2C(=O)c2c(-c3cccnc3)noc21 [Compound 9]	concentration dependent effect	302 ± 8	3.33	–	172 ± 5	540	96 ± 2	< 1000	–	50 ± 1	did not change P-gp expression	did not change P-gp expression	–	45 ± 1
